Patent US11130762B2, “Azaaryl derivative, preparation method therefor, and application thereof for use in pharmacy” (Abbisko Therapeutics Co., Ltd., priority 2017, dated 2021)
Read-outs that look alike come from different tables or passages of the source.

Columns and labels:
[1] = test system: M-NFS-60 mouse myeloid leukemia lymphocytes; assay: CSF-1R-related cell proliferation experiment (Cell Titer Glo), M-NFS-60 cells with M-CSF; assay type: cell-based; conditions: Lymphocyte, 72 h, 3 days, CTG, * = average of multiple tests
Experimental: C. CSF-1R-Related Cell Proliferation Experiment
Functional effects of compounds on cell proliferation were evaluated by using Cell Titer Glo (CTG) study in the present invention. M-NFS-60 mouse myeloid leukemia lymphocytes (cat. No. CCBJ078) from National Institutes For Food and Drug Control were cultured in the incubator under conditions of RPMI 1640 (Gibco, cat. No. 11875-119), 10% fetal bovine serum (Gibco, 10099-141), human 10 ng/mL M-CSF macrophage colony-stimulating factor (R&D, cat. No. MVN0915101), 37° C., and 5% CO2. Since ATP is an index for viable cell metabolism, CTG (Promega, #G7573) reagent is a homogeneous detection method for detecting the number of viable cells in the culture by quantifying ATP. Therefore, compound-mediated inhibition for cell proliferation/survival was evaluated by quantifying ATP content in cells, and the specific experimental process was as follows:
1. The cells were plated into a tissue-culture-medium-treated 96-well plate (Costar #3904) with 5,000 cells/well/80 μL fresh culture medium;
2. 24 hours later, 10 μL culture medium containing testing compound with 10-fold of final concentration was added to each well;
3. 10 μL of culture medium containing M-CSF with 10-fold of the final concentration was then added to each well;
4. dosage effect was evaluated by testing the 3-fold serial dilutions of the compound;
5. after the cells were incubated for 3 days at 37° C. and 5% CO2, the inhibition on cell survival was quantified after 50 μL of CTG was added and the luminescence assay was performed;
6. the compound concentration leading to half maximal inhibitory (IC50) and the compound concentration leading to absolute half maximal inhibitory (Absolute IC50) were measured by a plate reader (M1000, Tecan) and a four-parameter curve fit in Graphpad Prism 7.

[2] = molecular target: PDGFRA kinase (Homo sapiens, UniProt P16234); assay: PDGFRA in vitro biochemical kinase study (Caliper EZ Reader); conditions: Caliper mobility shift; read-out: Enzymatic experiment PDGFRA IC50
Sequence of PDGFRA kinase (P16234 24-1089): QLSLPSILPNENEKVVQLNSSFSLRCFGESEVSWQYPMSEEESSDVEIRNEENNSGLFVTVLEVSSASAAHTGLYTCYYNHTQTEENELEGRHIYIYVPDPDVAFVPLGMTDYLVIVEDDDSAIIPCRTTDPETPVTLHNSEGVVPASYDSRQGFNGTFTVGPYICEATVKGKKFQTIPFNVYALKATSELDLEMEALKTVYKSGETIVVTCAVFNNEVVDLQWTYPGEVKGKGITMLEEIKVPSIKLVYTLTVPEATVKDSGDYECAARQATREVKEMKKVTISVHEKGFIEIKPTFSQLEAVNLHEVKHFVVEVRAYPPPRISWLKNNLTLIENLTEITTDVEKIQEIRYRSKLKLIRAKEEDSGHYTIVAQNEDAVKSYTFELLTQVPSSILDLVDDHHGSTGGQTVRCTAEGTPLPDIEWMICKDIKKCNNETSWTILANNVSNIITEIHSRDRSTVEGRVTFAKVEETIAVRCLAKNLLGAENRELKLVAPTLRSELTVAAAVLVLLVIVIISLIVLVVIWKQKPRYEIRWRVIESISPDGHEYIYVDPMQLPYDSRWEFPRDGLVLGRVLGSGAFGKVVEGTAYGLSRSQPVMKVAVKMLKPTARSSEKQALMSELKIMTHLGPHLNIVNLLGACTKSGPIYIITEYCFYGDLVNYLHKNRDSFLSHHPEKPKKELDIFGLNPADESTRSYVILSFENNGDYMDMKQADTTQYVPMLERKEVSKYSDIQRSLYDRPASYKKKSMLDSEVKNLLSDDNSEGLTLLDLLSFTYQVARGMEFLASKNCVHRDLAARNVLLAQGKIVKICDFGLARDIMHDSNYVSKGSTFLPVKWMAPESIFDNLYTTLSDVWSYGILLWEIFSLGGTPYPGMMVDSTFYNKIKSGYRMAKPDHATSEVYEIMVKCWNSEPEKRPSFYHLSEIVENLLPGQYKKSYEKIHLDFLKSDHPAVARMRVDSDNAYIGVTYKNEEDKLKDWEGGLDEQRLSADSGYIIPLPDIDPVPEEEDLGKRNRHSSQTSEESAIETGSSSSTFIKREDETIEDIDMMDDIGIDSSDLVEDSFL
Experimental: (§1) B. KIT/PDGFRA In Vitro Biochemical Kinase Study
(§2) 1. Preparation of 1-Fold Kinase Buffer and Stop Solution
(§3) 1.2 stop solution: 100 mM HEPES, pH 7.5, 0.015% Brij-35, 0.2% Coating Reagent #3, 50 mM EDTA
(§4) 2. Preparation of Compound Solution
(§5) 2.1 Dilution of Compound Solution
(§6) 1) The final concentration of the compound solution was 40 μM, and the concentration of the prepared stock solution was 50 times of the final concentration, i.e., 2 mM.
(§7) 2) 80 μL of 100% DMSO was added to the second well of the 96-well plate, then 20 μL of 10 mM compound solution was added, and thereby 2 mM compound solution was prepared, 60 μL of 100% DMSO was added to other wells, 20 μL of compound was taken from the second well, added to the third well and diluted by 4 times. This serial 4-time dilution was conducted in sequence for the total of 10 concentrations.
(§8) 2.2 5-Fold Compound Solution Transferred to a Reaction Plate
(§9) 1) 10 μL of solution was taken from each well of the above 96-well plate and added to another 96-well plate, and 90 μL of kinase buffer was added.
(§10) 2) 5 μL of solution was taken from the above 96-well plate and added to a 384-well reaction plate.
(§11) 1) KIT/PDGFRA kinase was added to the 1-fold kinase buffer solution to obtain a 2.5-fold kinase solution.
(§12) 2) FAM-labeled polypeptide and ATP were added to the 1-fold kinase buffer solution to obtain a 2.5-fold substrate solution.
(§13) 3) 10 μL of 2.5-fold kinase solution was added to the 384-well reaction plate, which already contained 5 μL of 5-fold compound in 10% DMSO. And the mixed solution was incubated at room temperature for 10 min.
(§14) 4) 10 μL of 2.5-fold substrate solution was added to the 384-well reaction plate.
(§15) 5) Kinase reaction and termination: the mixed solution was incubated at 28° C. for a certain period of time, and 25 μL of stop solution was added to stop the reaction.
(§16) 2.4 Data Reading of Caliper EZ Reader II
(§17) 2.5 Calculation of Percent Inhibition and IC50
(§18) 1) Percent conversion data were copied from the Caliper EZ Reader. […]

[3] = molecular target: CSF-1R (Homo sapiens, UniProt P07333); assay: CSF-1R in vitro biochemical kinase study (ADP-Glo assay); conditions: 500 μM ATP, * = average of multiple tests, read-out: Enzymatic experiment CSF1R IC50
Sequence of CSF-1R (P07333 20-972): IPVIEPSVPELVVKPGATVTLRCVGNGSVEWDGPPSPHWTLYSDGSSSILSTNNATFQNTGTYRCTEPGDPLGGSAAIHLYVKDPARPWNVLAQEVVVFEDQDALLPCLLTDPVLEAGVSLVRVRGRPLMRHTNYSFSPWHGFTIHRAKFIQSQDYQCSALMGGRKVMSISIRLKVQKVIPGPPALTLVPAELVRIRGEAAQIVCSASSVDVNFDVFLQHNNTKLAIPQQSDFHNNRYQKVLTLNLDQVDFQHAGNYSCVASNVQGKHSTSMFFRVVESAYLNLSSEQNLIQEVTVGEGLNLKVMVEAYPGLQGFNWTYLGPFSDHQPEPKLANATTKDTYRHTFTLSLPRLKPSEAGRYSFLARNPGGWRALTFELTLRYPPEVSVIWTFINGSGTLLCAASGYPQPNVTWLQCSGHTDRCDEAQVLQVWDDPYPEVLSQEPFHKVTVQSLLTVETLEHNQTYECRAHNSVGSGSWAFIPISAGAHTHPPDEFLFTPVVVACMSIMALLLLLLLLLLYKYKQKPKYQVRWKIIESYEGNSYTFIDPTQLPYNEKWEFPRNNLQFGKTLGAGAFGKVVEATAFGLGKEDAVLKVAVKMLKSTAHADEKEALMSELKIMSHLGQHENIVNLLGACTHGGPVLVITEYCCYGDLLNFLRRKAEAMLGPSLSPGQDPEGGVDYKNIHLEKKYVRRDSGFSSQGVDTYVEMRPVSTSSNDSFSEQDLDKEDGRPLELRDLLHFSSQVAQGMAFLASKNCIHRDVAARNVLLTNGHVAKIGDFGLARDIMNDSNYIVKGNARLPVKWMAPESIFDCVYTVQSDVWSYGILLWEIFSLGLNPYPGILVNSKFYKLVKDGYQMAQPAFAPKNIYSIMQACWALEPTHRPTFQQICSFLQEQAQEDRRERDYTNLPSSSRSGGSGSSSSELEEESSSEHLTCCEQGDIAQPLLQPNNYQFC
Experimental: A. CSF-1R In Vitro Biochemical Kinase Study
In the present invention, the inhibitory activity of compounds against the CSF-1R activity was determined by using CSF-1R ADP-Glo assay. The compound-mediated inhibition effect was achieved by inhibiting the production of ADP from consumption of ATP, and the activities of compounds were evaluated by using the ADP-Glo kit (Promega, cat. No. V9101). The specific experimental process was as follows:
1. The kinase reaction performed in the present invention was carried out in a 384-well plate (Perkinelmer, cat. No. 6007290), 3.95 nM of CSF-1R, 500 μM of ATP, and 0.2 mg/mL of polypeptide (Poly (Glu4, Try1), Sigma, cat. No. P0275) were respectively weighed and added to each well:
2. following reagents were then added to each well to reach the final reaction system: 40 mM Tris, pH 7.5, 20 mM MgCl2, 0.01% Triton X-100, 0.1 mg/mL BSA, 2.5 mM DTT, and 0.1% DMSO;
3. the reaction was conducted at 30° C. for 60 min;
4. then an equal volume of stop solution (ADP-Glo) was added to the kinase reaction system;
5. the mixed solution was incubated at 25° C. for 60 min, and the kinase reaction was then terminated;
6. a two-fold volume of detection reagent was then added to each well;
7. the mixed solution was incubated at 25° C. for 30 min;
8. the compound IC50 value was measured by using a plate reader (Tecan, M1000) and a four-parameter curve was generated in Graphpad Prism.

[4] = molecular target: KIT kinase (Homo sapiens, UniProt P10721); assay: KIT in vitro biochemical kinase study (Caliper EZ Reader); conditions: Caliper mobility shift; read-out: Enzymatic experiment KIT IC50
Sequence of KIT kinase (P10721 26-976): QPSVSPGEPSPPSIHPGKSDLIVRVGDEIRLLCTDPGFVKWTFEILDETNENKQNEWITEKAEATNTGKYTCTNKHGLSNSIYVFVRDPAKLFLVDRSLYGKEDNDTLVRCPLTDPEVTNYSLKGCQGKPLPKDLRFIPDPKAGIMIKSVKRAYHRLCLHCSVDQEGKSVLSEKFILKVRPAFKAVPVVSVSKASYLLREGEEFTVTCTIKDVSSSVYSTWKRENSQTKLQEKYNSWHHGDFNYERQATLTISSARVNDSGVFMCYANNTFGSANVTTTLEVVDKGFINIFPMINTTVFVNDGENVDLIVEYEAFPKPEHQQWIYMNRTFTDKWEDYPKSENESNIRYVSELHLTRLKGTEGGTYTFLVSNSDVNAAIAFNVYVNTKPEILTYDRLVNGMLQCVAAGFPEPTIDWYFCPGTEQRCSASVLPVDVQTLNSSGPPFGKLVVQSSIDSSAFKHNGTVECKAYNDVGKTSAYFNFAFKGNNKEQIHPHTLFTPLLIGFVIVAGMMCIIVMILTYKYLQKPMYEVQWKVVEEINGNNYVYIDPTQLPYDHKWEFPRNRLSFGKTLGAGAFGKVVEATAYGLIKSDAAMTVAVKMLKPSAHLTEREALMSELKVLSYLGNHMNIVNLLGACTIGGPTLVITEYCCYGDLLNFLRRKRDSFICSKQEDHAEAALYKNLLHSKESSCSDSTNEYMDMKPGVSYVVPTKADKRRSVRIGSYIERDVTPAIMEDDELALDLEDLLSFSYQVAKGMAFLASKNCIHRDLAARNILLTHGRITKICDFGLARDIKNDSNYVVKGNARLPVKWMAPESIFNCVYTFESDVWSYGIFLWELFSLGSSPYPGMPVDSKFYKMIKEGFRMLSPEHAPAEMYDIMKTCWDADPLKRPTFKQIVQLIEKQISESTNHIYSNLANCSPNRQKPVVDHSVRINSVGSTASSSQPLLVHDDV
Experimental: as §1, §2, §3, §4, §5, §6, §7, §8, §9, §10, §11, §12, §13, §14, §15, §16, §17, §18

IC50 ([1]; read-out: Cytological experiment CSF1R IC50): 127 nM | IC50 ([1]; absolute half maximal inhibition, read-out: Cytological experiment CSF-1R Absolute IC50): 114 nM | IC50 [2]: 226 nM | IC50 [3]: 95.2 nM | IC50 [4]: 22.6 nM
Structure (SMILES): Cc1nc(-c2cnc3n(c2=O)CCCN3C(C)C)ccc1Oc1ccnc(-c2cnn(C)c2)c1 [Example 5, 9-isopropyl-3-(6-methyl-5-((2-(1-methyl-1H-pyrazol-4-yl)pyridin-4-yl)oxy)pyridin-2-yl)-6,7,8,9-tetrahydro-4H-pyrimido[1,2-a]pyrimidin-4-one]
